Source: US11000033B2, “Ketone or oxime compound, and herbicide” (NISSAN CHEMICAL CORPORATION, priority 2014, dated 2021)

Experiments:
Format in all cases: in vivo
wheat [1] = experiment: Test Example 5: effect on crop by foliage application, plastic box (symbol e); conditions: 320 g/ha, 3 weeks after application
How it was run: (§1)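 Diluvial soil, sterilized and boxed (21 × 13 × 7 cm), received spot-sown seed covered by about 1.5 cm soil; plants were then greenhouse-grown at 25–30° C.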

Avena fatua = experiment: Test Example 5: herbicidal effect by foliage application, plastic box (symbol I); conditions: 320 g/ha, 3 weeks after application
How it was run: (§2)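 Greenhouse foliar test: seedlings at 14 days, grown 25° C. to 30° C. in sterilized diluvial soil; compound applied as an aqueous dilution of an emulsion; response read 3 weeks after spraying.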

Monochoria vaginalis [2] = experiment: Test Example 2: herbicidal activity, application during weed generation in submerged conditions (symbol C); conditions: Table 23; application herbicide amount 320 g/ha; grade 0-5 by criteria of Test Example 1
How it was run: (§3)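 Flooded-soil post-emergence test: emulsion of compound, water-diluted to target rate, applied to paddy water surface at 1–2 leaf stage of mixed-sown weeds (alluvial soil, 4 cm water, 25–30° C. greenhouse); visual rating 3 weeks after application.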

Lolium multiflorum Lam. = experiment: Test Example 4: herbicidal effect by soil treatment (symbol K)
How it was run: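 Seeds were sown in sterilized diluvial soil, covered with about 1.5 cm of soil, and the soil surface was sprayed with a water-diluted emulsion of the compound at a predetermined rate. Plants grew in a greenhouse at 25° C. to 30° C.; effects were scored visually 3 weeks after application.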

soybean = experiment: Test Example 4: effect on crop by soil treatment (symbol d); conditions: for d: soybean, effect on crop grade: application herbicide amount 320 g/ha
How it was run: (§4)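 Plants grew in a 25° C. to 30° C. greenhouse after spot-sowing of seeds, including beet, rapeseed, wheat and rice, into sterilized diluvial soil under roughly 1.5 cm of cover soil.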

[3] = system: directly sowed rice plant; experiment: Test Example 3: effect on crop by foliage application, Wagner pot (symbol b); conditions: application herbicide amount 320 g/ha
How it was run: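 Alluvial soil in a 1/10000-are Wagner pot was flooded to a water depth of 0.1–0.5 cm. Echinochloa crus-galli var. crus-galli, Leptochloa chinensis, Cyperus difformis and rice were sown into it and grown in a greenhouse at 25–30 °C.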

[4] = system: Echinochloa oryzacola Vasing.; experiment: Test Example 2: herbicidal activity, application during weed generation in submerged conditions (symbol A); conditions: Table 23; application herbicide amount 320 g/ha; grade 0-5 by criteria of Test Example 1
How it was run: as §3

beet = experiment: Test Example 4: effect on crop by soil treatment (symbol f); conditions: for f: beet, effect on crop grade: application herbicide amount 320 g/ha
How it was run: as §4

Amaranthus retroflexus = experiment: Test Example 5: herbicidal effect by foliage application, plastic box (symbol N); conditions: 320 g/ha, 3 weeks after application
How it was run: as §2

wheat [5] = experiment: Test Example 4: effect on crop by soil treatment (symbol e); conditions: for e: wheat, effect on crop grade: application herbicide amount 320 g/ha
How it was run: as §4

Scirpus juncoides = experiment: Test Example 1: herbicidal activity, application before weed generation in submerged conditions (symbol B); conditions: application herbicide amount 320 g/ha
How it was run: (§5)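 In a flooded pot test with alluvial soil, the emulsion-formulated compound was diluted with water to a predetermined amount and applied to the floodwater immediately on the sowing day. Pots were held in a greenhouse at 25–30 °C for 3 weeks before each weed was rated.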

Veronica persica = experiment: Test Example 5: herbicidal effect by foliage application, plastic box (symbol R); conditions: 320 g/ha, 3 weeks after application
How it was run: as §2

rapeseed = experiment: Test Example 5: effect on crop by foliage application, plastic box (symbol g); conditions: 320 g/ha, 3 weeks after application
How it was run: as §1

Monochoria vaginalis [6] = experiment: Test Example 1: herbicidal activity, application before weed generation in submerged conditions (symbol C); conditions: application herbicide amount 320 g/ha
How it was run: as §5

[7] = application herbicide amount 320 g/ha

SMILES | e: wheat, effect on crop grade (wheat [1]) | I: Avena fatua, herbicidal effect grade (Avena fatua) | Herbicidal effect grade, C: Monochoria vaginalis (Monochoria vaginalis [2]) | K: Lolium multiflorum Lam., herbicidal effect grade (Lolium multiflorum Lam.; [7]) | d: soybean, effect on crop grade (soybean) | effect on crop b (directly sowed rice plant), grade 0-5 [3] | Herbicidal effect grade, A: Echinochloa oryzacola Vasing. [4] | f: beet, effect on crop grade (beet) | N: Amaranthus retroflexus, herbicidal effect grade (Amaranthus retroflexus) | e: wheat, effect on crop grade (wheat [5]) | Herbicidal effect grade, B: Scirpus juncoides (Scirpus juncoides) | R: Veronica persica, herbicidal effect grade (Veronica persica) | g: rapeseed, effect on crop grade (rapeseed) | Herbicidal effect grade, C: Monochoria vaginalis (Monochoria vaginalis [6]) | K: Lolium multiflorum Lam., herbicidal effect grade (Lolium multiflorum Lam.; 320 g/ha) | d: soybean, effect grade on crop (soybean; 320 g/ha) | f: beet, effect grade on crop (beet; 320 g/ha) | e: wheat, effect grade on crop (wheat [5]; 320 g/ha)
CCCC(=O)C(C(=O)OC)C1CC(O)=C(c2c(C)cc(C)cc2C)C1=O (stereo not drawn) [2-020] | 0 (Herbicidal ratio of 5% or lower (almost no effect)) | 0 (Herbicidal ratio of 5% or lower (almost no effect)) | 0 (Herbicidal ratio of 5% or lower (almost no effect)) | 4 (Herbicidal ratio of 70% or higher and lower than 90%) | 0 (Herbicidal ratio of 5% or lower (almost no effect)) | 2 (Herbicidal ratio of 20% or higher and lower than 40%) | 1 (Herbicidal ratio of 5% or higher and lower than 20%) | 0 (Herbicidal ratio of 5% or lower (almost no effect)) | 0 (Herbicidal ratio of 5% or lower (almost no effect)) | 0 (Herbicidal ratio of 5% or lower (almost no effect)) | 0 (Herbicidal ratio of 5% or lower (almost no effect)) | 0 (Herbicidal ratio of 5% or lower (almost no effect)) | 0 (Herbicidal ratio of 5% or lower (almost no effect)) | 0 (Herbicidal ratio of 5% or lower (almost no effect)) |  |  |  | 
CON=CC1CC(O)=C(c2c(C)cc(C)cc2C)C1=O (mixture of isomers) [3-001] | 0 (Herbicidal ratio of 5% or lower (almost no effect)) | 2 (Herbicidal ratio of 20% or higher and lower than 40%) | 0 (Herbicidal ratio of 5% or lower (almost no effect)) | 4 (Herbicidal ratio of 70% or higher and lower than 90%) | 0 (Herbicidal ratio of 5% or lower (almost no effect)) | 2 (Herbicidal ratio of 20% or higher and lower than 40%) | 0 (Herbicidal ratio of 5% or lower (almost no effect)) | 0 (Herbicidal ratio of 5% or lower (almost no effect)) | 0 (Herbicidal ratio of 5% or lower (almost no effect)) | 0 (Herbicidal ratio of 5% or lower (almost no effect)) | 0 (Herbicidal ratio of 5% or lower (almost no effect)) | 0 (Herbicidal ratio of 5% or lower (almost no effect)) | 0 (Herbicidal ratio of 5% or lower (almost no effect)) | 0 (Herbicidal ratio of 5% or lower (almost no effect)) |  |  |  | 
Cc1cc(C)c(C2=C(O)CC(CC(=O)Cc3ccccc3)C2=O)c(C)c1 (stereo not drawn) [2-015] | 0 (Herbicidal ratio of 5% or lower (almost no effect)) | 4 (Herbicidal ratio of 70% or higher and lower than 90%) | 0 (Herbicidal ratio of 5% or lower (almost no effect)) | 5 (Herbicidal ratio of 90% or more (almost completely withered)) | 0 (Herbicidal ratio of 5% or lower (almost no effect)) | 4 (Herbicidal ratio of 70% or higher and lower than 90%) | 0 (Herbicidal ratio of 5% or lower (almost no effect)) | 0 (Herbicidal ratio of 5% or lower (almost no effect)) | 0 (Herbicidal ratio of 5% or lower (almost no effect)) | 0 (Herbicidal ratio of 5% or lower (almost no effect)) | 4 (Herbicidal ratio of 70% or higher and lower than 90%) | 0 (Herbicidal ratio of 5% or lower (almost no effect)) | 4 (Herbicidal ratio of 70% or higher and lower than 90%) | 0 (Herbicidal ratio of 5% or lower (almost no effect)) |  |  |  | 
CON=C(C)CC1CC(OC(=O)Cc2ccc(OC)cc2)=C(c2c(C)cc(C)cc2C)C1=O (stereo not drawn) [1-156] | 5 (Herbicidal ratio of 90% or more (almost completely withered)) | 5 (Herbicidal ratio of 90% or more (almost completely withered)) | 3 (Herbicidal ratio of 40% or higher and lower than 70%) |  |  | 5 (Herbicidal ratio of 90% or more (almost completely withered)) | 5 (Herbicidal ratio of 90% or more (almost completely withered)) |  | 3 (Herbicidal ratio of 40% or higher and lower than 70%) |  | 5 (Herbicidal ratio of 90% or more (almost completely withered)) | 4 (Herbicidal ratio of 70% or higher and lower than 90%) | 4 (Herbicidal ratio of 70% or higher and lower than 90%) | 1 (Herbicidal ratio of 5% or higher and lower than 20%) | 5 (Herbicidal ratio of 90% or more (almost completely withered)) | 0 (Herbicidal ratio of 5% or lower (almost no effect)) | 1 (Herbicidal ratio of 5% or higher and lower than 20%) | 5 (Herbicidal ratio of 90% or more (almost completely withered))
CCOC(=O)C(C(=O)Cc1ccccc1)C1CC(O)=C(c2c(C)cc(C)cc2C)C1=O (stereo not drawn) [2-011] | 0 (Herbicidal ratio of 5% or lower (almost no effect)) | 0 (Herbicidal ratio of 5% or lower (almost no effect)) | 0 (Herbicidal ratio of 5% or lower (almost no effect)) | 0 (Herbicidal ratio of 5% or lower (almost no effect)) | 0 (Herbicidal ratio of 5% or lower (almost no effect)) | 0 (Herbicidal ratio of 5% or lower (almost no effect)) | 0 (Herbicidal ratio of 5% or lower (almost no effect)) | 0 (Herbicidal ratio of 5% or lower (almost no effect)) | 0 (Herbicidal ratio of 5% or lower (almost no effect)) | 0 (Herbicidal ratio of 5% or lower (almost no effect)) | 0 (Herbicidal ratio of 5% or lower (almost no effect)) | 0 (Herbicidal ratio of 5% or lower (almost no effect)) | 0 (Herbicidal ratio of 5% or lower (almost no effect)) | 0 (Herbicidal ratio of 5% or lower (almost no effect)) |  |  |  | 
Cc1cc(C)c(C2=C(O)CC(CC(=O)C(C)(C)C)C2=O)c(C)c1 (stereo not drawn) [2-022] | 0 (Herbicidal ratio of 5% or lower (almost no effect)) | 0 (Herbicidal ratio of 5% or lower (almost no effect)) | 0 (Herbicidal ratio of 5% or lower (almost no effect)) | 4 (Herbicidal ratio of 70% or higher and lower than 90%) | 0 (Herbicidal ratio of 5% or lower (almost no effect)) | 5 (Herbicidal ratio of 90% or more (almost completely withered)) | 1 (Herbicidal ratio of 5% or higher and lower than 20%) | 0 (Herbicidal ratio of 5% or lower (almost no effect)) | 0 (Herbicidal ratio of 5% or lower (almost no effect)) | 0 (Herbicidal ratio of 5% or lower (almost no effect)) | 0 (Herbicidal ratio of 5% or lower (almost no effect)) | 0 (Herbicidal ratio of 5% or lower (almost no effect)) | 1 (Herbicidal ratio of 5% or higher and lower than 20%) | 0 (Herbicidal ratio of 5% or lower (almost no effect)) |  |  |  | 
